Assays:
[1] = test system: ds26 (DNA, duplex) CAATCGGATCGAATTCGATCCGATTG; assay: fluorescent intercalator displacement (FID); design: unit not given here; details: thiazole orange displaced
[2] = test system: c-kit-1 (DNA, G4) CGGGCGGGCACGAGGGAGGGT; assay: fluorescent intercalator displacement (FID); details: K+ 100 mM (TBS); 10 mM Tris, pH 7.35 (TBS as defined in Table 4); thiazole orange displaced
[3] = test system: Pu22 (DNA, G4) TGAGGGTGGGTAGGGTGGGTAA; assay: fluorescent intercalator displacement (FID); details: K+ 100 mM (TBS); 10 mM Tris, pH 7.35 (TBS as defined in Table 4); thiazole orange displaced
[4] = test system: c-kit-2 (DNA, G4) CGGGCGGGCGCTAGGGAGGGT; assay: fluorescent intercalator displacement (FID); design: unit not given here; details: thiazole orange displaced
[5] = test system: Pu27 (DNA, G4) TGGGGAGGGTGGGGAGGGTGGGGAAGG; assay: fluorescent intercalator displacement (FID); details: K+ 100 mM (TBS); 10 mM Tris, pH 7.35 (TBS as defined in Table 4); thiazole orange displaced
[6] = test system: HTG21 (DNA, G4) GGGTTAGGGTTAGGGTTAGGG; assay: fluorescent intercalator displacement (FID); design: unit not given here; details: thiazole orange displaced
[7] = test system: Pu22 (DNA, G4) TGAGGGTGGGTAGGGTGGGTAA; assay: fluorescent intercalator displacement (FID); design: unit not given here; details: thiazole orange displaced
[8] = test system: c-kit-1 (DNA, G4) CGGGCGGGCACGAGGGAGGGT; assay: fluorescent intercalator displacement (FID); design: unit not given here; details: thiazole orange displaced
[9] = test system: Pu27 (DNA, G4) TGGGGAGGGTGGGGAGGGTGGGGAAGG; assay: fluorescent intercalator displacement (FID); design: unit not given here; details: thiazole orange displaced
[10] = test system: ds26 (DNA, duplex) CAATCGGATCGAATTCGATCCGATTG; assay: fluorescent intercalator displacement (FID); details: K+ 100 mM (TBS); 10 mM Tris, pH 7.35 (TBS as defined in Table 4); thiazole orange displaced
[11] = test system: HTG21 (DNA, G4) GGGTTAGGGTTAGGGTTAGGG; assay: fluorescent intercalator displacement (FID); details: K+ 100 mM (TBS); 10 mM Tris, pH 7.35 (TBS as defined in Table 4); thiazole orange displaced
Hep-G2 cells [12] = assay: Cellular uptake of metal by ICP-MS; type: cell-based, human; details: Hep-G2, 24 h; 3 5 μM, 6 14 μM, 7 16 μM, 8 10 μM, 10 12 μM, 11 6 μM, cisplatin 10 μM
Description: In order to understand the uptake and distribution of cisplatin, complexes 1–6, 7, 8, 10 and 11 in Hep-G2 cells, an ICP-MS assay was performed to quantify the amount of metal (Pt, Ni or Pd) taken up by the cells.

[13] = test system: human hepatoma (BEL-7402) xenograft; assay: In vivo antitumor activity, BEL-7402 xenograft model; design: species or system nude mice; details: cisplatin, 2 mg/kg/2days ip; for Tumor Volume (end): day 18, 2 mg/kg
Description: Animal used, acute toxicity studies and antitumor activity toward BEL-7402 in vivo of complex 3 (16 and 8 mg/kg, two time a day,17 days (ip)), complex 6 (3.2 and 1.6 mg/kg/ day, 17 days) and cisplatin (2 mg/kg/2days), were similar to that reported by Chen[43][80]. BEL-7402 xenograft mouse models were purchased from Beijing HFK Bioscience Co., Ltd (Beijing, China, approval No. SCXK 2014-004). The animal procedures were approved by the Institute of Radiation Medicine Chinese Academy of Medical Sciences (Tian Jin, China, approval No. SYXK 2014-0002). And all of the experimental procedures were carried out in accordance with the NIH Guidelines for the Care and Use of Laboratory Animals. Animal experiments were approved by the Animal Care and Use Committee of Institute of Radiation Medicine Chinese Academy of Medical Sciences.

SK-OV-3 cells = assay: MTT cytotoxicity assay; type: cell-based, human; details: SK-OV-3, 48 h; for Inhibitory rates (%): footnote a: 20 μM, footnotes b, c (salts, cisplatin) cut off
Description: (§1) The cytotoxic activity of the L^a–L^d and complexes 1–14 were tested against a panel of cell lines such as Hep-G2, NCI-H460, SK-OV-3, HCT-8, BEL-7402 cells, and one normal cell line, HL-7702, and cell viability was determined using the MTT assay. Cisplatin was used as the positive control.

BEL-7402 cells = assay: MTT cytotoxicity assay; type: cell-based, human; details: BEL-7402, 48 h; for Inhibitory rates (%): footnote a: 20 μM, footnotes b, c (salts, cisplatin) cut off
Description: as §1

HCT-8 cells = assay: MTT cytotoxicity assay; type: cell-based, human; details: HCT-8, 48 h; for Inhibitory rates (%): footnote a: 20 μM, footnotes b, c (salts, cisplatin) cut off
Description: as §1

NCI-H460 cells = assay: MTT cytotoxicity assay; type: cell-based, human; details: NCI-H460, 48 h; for Inhibitory rates (%): footnote a: 20 μM, footnotes b, c (salts, cisplatin) cut off
Description: as §1

HL-7702 cells = assay: MTT cytotoxicity assay, normal cell line; type: cell-based, human; details: HL-7702, 48 h; for Inhibitory rates (%): footnote a: 20 μM, footnotes b, c (salts, cisplatin) cut off
Description: as §1

Hep-G2 cells [14] = details: Hep-G2, 48 h; for Inhibitory rates (%): footnote a: 20 μM, footnotes b, c (salts, cisplatin) cut off
Description: as §1

Hep-G2 cells [15] = assay: Distribution of metal in nuclear and mitochondrial fractions (ICP-MS); type: cell-based, human; details: Hep-G2, 24 h
Description: The distributions of metal (cisplatin, complexes 1–6, 7, 8, 10 and 11) in the nuclear fraction and mitochondrial fractions of Hep-G2 cells were studied after exposure of Hep-G2 cells to 1–6, 7, 8, 10, 11 and cisplatin for 24 h according to our previous reports. […] Taken together, their difference of metal (Pt, Ni or Pd) distribution for complexes 1–6, 7, 8, 10, 11 and cisplatin could be attributed to their differences in cytotoxicity and the apoptotic pathways in Hep-G2 cells.

[16] = Body weight in the BEL-7402 xenograft study
Description: To investigate the efficacy of 3 to inhibit tumor growth in vivo, a mouse model of human hepatoma (BEL-7402) xenograft was used. The tumor-bearing nude mice received treatment when the tumor size was between 100 and 160 mm^3. The mice were treated with 3 at 16 and 8 mg/kg two times every day, and treatment of cisplatin with 2 mg/kg/2days as the positive control.
(1 picture or pasted object on this page, not shown here)

Compound: COC1c2c([c-]ccc2Cl)-c2nccc3cccc1c23.CS(C)=O.[Cl-].[Pt+2] (stereo not shown)
- ds26DC50 [1]: 91.48
- c-kit-1DC50 [2]: 79.95
- Pu22DC50 [3]: 74.91
- c-kit-2DC50 [4]: 79.69
- Pu27DC50 [5]: 33.15
- HTG21DC50 [6]: 55.16

Compound: CS(C)=O.O=C1c2c([c-]ccc2Cl)-c2nccc3cccc1c23.[Cl-].[Pt+2]
- Pu22DC50 [7]: 99.81
- c-kit-1DC50 [8]: 90.02
- ds26DC50 [1]: 96.11
- c-kit-2DC50 [4]: 87.29
- Pu27DC50 [9]: 60.02
- HTG21DC50 [6]: 70.83

Compound: Nc1ccc2ccnc3c2c1C(=O)c1ccccc1-3.[Cl-].[Cl-].[Ni+2]
- Pu22DC50 [7]: 7.63
- c-kit-1DC50 [8]: 9.11
- ds26DC50 [1]: 37.01
- c-kit-2DC50 [4]: 3.61
- Pu27DC50 [9]: 1.31
- HTG21DC50 [6]: 3.35

Compound: Nc1ccc2ccnc3c2c1C(=O)c1ccccc1-3.[Cl-].[Cl-].[Pd+2]
- Pu22DC50 [7]: 9.09
- c-kit-1DC50 [8]: 18.75
- ds26DC50 [1]: 21.76
- c-kit-2DC50 [4]: 5.01
- Pu27DC50 [9]: 3.88
- HTG21DC50 [6]: 3.91

Compound: Nc1cccc2c1C(=O)c1cccc3ccnc-2c13.[Cl-].[Cl-].[Ni+2]
- Pu22DC50 [7]: 90.18
- ds26DC50 [10]: 70.46
- c-kit-1DC50 [8]: 73.65
- HTG21DC50 [11]: 26.45
- c-kit-2DC50 [4]: 45.30
- Pu27DC50 [9]: 14.22

Compound: Nc1cccc2c1C(=O)c1cccc3ccnc-2c13.[Cl-].[Cl-].[Pd+2]
- Pu22DC50 [7]: 89.64
- c-kit-1DC50 [8]: 78.46
- ds26DC50 [1]: 90.63
- c-kit-2DC50 [4]: > 100
- Pu27DC50 [9]: 42.51
- HTG21DC50 [6]: 49.08

Compound: N.N.[Cl][Pt][Cl] [Cisplatin, cisplatin, reference compound]
- cellular accumulation of metal (Pt) (Hep-G2 cells [12]): 4.89 ± 0.43 nmol platinum/10^6 cells
- Tumor Volume (start) [13]: 104.79 ± 32.12 mm^3
- average tumor weight (mean ± SD g) [13]: 0.52 ± 0.29 g
- Tumor Volume (end) [13]: 566.82 ± 331.08 mm^3
- Tumor Volume (end) ([13]; listed as cisplatin): 566 mm^3
- inhibition of tumor growth (%) / Inhibition Ratio ([13]; tumor weight): 75.9%
- IC50 (SK-OV-3 cells): 14.1 ± 1.07 µM
- Inhibitory rates (%) (SK-OV-3 cells): 58.06 ± 1.03%
- IC50 (BEL-7402 cells): 12.7 ± 0.94 µM
- Inhibitory rates (%) (BEL-7402 cells): 65.82 ± 1.11%
- IC50 (HCT-8 cells): 16.3 ± 1.54 µM
- Inhibitory rates (%) (HCT-8 cells): 56.07 ± 1.67%
- IC50 (NCI-H460 cells): 18.1 ± 1.26 µM
- Inhibitory rates (%) (NCI-H460 cells): 59.13 ± 1.35%
- IC50 (HL-7702 cells): 12.3 ± 1.19 µM
- Inhibitory rates (%) (HL-7702 cells): 63.09 ± 1.35%
- IC50 (Hep-G2 cells [14]): 9.65 ± 0.87 µM
- Inhibitory rates (%) (Hep-G2 cells [14]): 68.71 ± 0.56%
- distribution of metal in nuclear and mitochondrial fractions (Hep-G2 cells [15]): mainly accumulated in the mitochondrial fraction
- body weight loss during treatment (in words) ([16]; BEL-7402 xenograft mice): severe body weight loss
- Body Weight (end) ([16]; cisplatin, 2 mg/kg/2days ip): 19.6 ± 0.9 g
- Body Weight (start) ([16]; cisplatin, 2 mg/kg/2days ip): 22.5 ± 1.1 g
- RBW (%) (end) ([16]; cisplatin, 2 mg/kg/2days ip): 87.11 ± 4.8%

Compound: O.O.O.O.O.O.[Cl][Ni][Cl] [NiCl2·6H2O, reference compound]
- Inhibitory rates (%) (SK-OV-3 cells): 20.88 ± 0.61%
- Inhibitory rates (%) (BEL-7402 cells): 11.28 ± 1.08%
- Inhibitory rates (%) (HCT-8 cells): 12.75 ± 1.09%
- Inhibitory rates (%) (NCI-H460 cells): 10.44 ± 1.82%
- Inhibitory rates (%) (HL-7702 cells): 17.03 ± 1.16%
- Inhibitory rates (%) (Hep-G2 cells [14]): 15.06 ± 1.09%

Compound: [Cl][Pd][Cl] [PdCl2, reference compound]
- Inhibitory rates (%) (SK-OV-3 cells): 19.02 ± 1.04%
- Inhibitory rates (%) (BEL-7402 cells): 18.59 ± 1.77%
- Inhibitory rates (%) (HCT-8 cells): 15.05 ± 1.84%
- Inhibitory rates (%) (NCI-H460 cells): 9.91 ± 1.49%
- Inhibitory rates (%) (HL-7702 cells): 18.24 ± 1.33%
- Inhibitory rates (%) (Hep-G2 cells [14]): 20.14 ± 1.18%

Compound: O=C1c2c(Cl)cc[c]3c2-c2c4c1cccc4cc[n+]2[Pt-2]31[NH2+]CCC[NH2+]1.[Cl-] (stereo not shown) [compound 9, [Pt(L^c)(pn)]Cl]
- IC50 (SK-OV-3 cells): 30.4 ± 1.19 µM
- Inhibitory rates (%) (SK-OV-3 cells): 36.74 ± 1.21%
- IC50 (BEL-7402 cells): 45 ± 0.86 µM
- Inhibitory rates (%) (BEL-7402 cells): 40.64 ± 0.85%
- IC50 (HCT-8 cells): 25.2 ± 1.82 µM
- Inhibitory rates (%) (HCT-8 cells): 40.89 ± 1.79%
- IC50 (NCI-H460 cells): 25.1 ± 1.09 µM
- Inhibitory rates (%) (NCI-H460 cells): 47.28 ± 1.07%
- IC50 (HL-7702 cells): 80 ± 1.02 µM
- Inhibitory rates (%) (HL-7702 cells): 39.56 ± 1.01%
- IC50 (Hep-G2 cells [14]): 15.9 ± 2.11 µM
- Inhibitory rates (%) (Hep-G2 cells [14]): 58.11 ± 2.05%

Compound: NCCN [en, 1,2-ethylenediamine, reference compound]
- Inhibitory rates (%) (SK-OV-3 cells): 18.42 ± 0.98%
- Inhibitory rates (%) (HCT-8 cells): 16.45 ± 1.92%
- Inhibitory rates (%) (NCI-H460 cells): 20.58 ± 1.66%
- Inhibitory rates (%) (HL-7702 cells): 15.03 ± 0.65%
- Inhibitory rates (%) (Hep-G2 cells [14]): 13.64 ± 2.03%

Compound: cis-Pt(DMSO)2Cl2 [reference compound]
- Inhibitory rates (%) (SK-OV-3 cells): 15.11 ± 1.17%
- Inhibitory rates (%) (BEL-7402 cells): 10.74 ± 0.95%
- Inhibitory rates (%) (HCT-8 cells): no activity
- Inhibitory rates (%) (NCI-H460 cells): no activity
- Inhibitory rates (%) (HL-7702 cells): no activity
- Inhibitory rates (%) (Hep-G2 cells [14]): 17.83 ± 0.57%
